Reference: PubChem BioAssay AID1361 (SRMLSC, 2008)
Active and inactive are the calls of the source. How the calls were made is not given here.

Test: blockers of mitochondrial fusion, WT vs mutant – cell-based, chemical genetic, wild-type and mutant, confirmation (AID 1361)
Conditions: Cell-based mitochondrial fusion phenotype, imaging
[1] = mutant cells, measured here: mutant cell line IC50

Row | SMILES | IC50 (WT cells) | IC50 [1] [µM]
1 | CC(C)CN(C(=O)c1nn(C)c(=O)c2ccccc12)c1nc2ccccc2s1 | 21.9 µM | > 25
2 | O=C(c1ccco1)N1CCN(c2c(-c3ccccc3)c3cc(Cl)ccc3[nH]c2=O)CC1 | 13.2 µM | > 25
3 | CCCCSc1nnc(-c2ccccc2)c2ccccc12 | 24.9 µM (inactive) | > 25
4 | Cc1ccc(C)c(N2CCN(C(=O)C3CCCCN3S(=O)(=O)c3ccc(F)cc3)CC2)c1 (configuration not stated) | 18.3 µM | > 25
5 | COC(=O)c1c(NC(=O)CN2CCC3(O)CCCCC3C2c2ccc(OC)cc2OC)sc(C)c1C (configuration not stated) | 14.9 µM | > 25
6 | COc1cccc(C2=CC(c3ccccc3)n3nnnc3N2)c1 (configuration not stated) | > 25 µM (inactive) | > 25
7 | Cc1ccc(C(NC(=O)NC(C)c2ccccc2)C(Cl)(Cl)Cl)cc1F (configuration not stated) | 10.9 µM | > 25
8 | CC/C(=C\C1CCCCC1)C(NP(=O)(c1ccccc1)c1ccccc1)c1ccccc1 (configuration not stated) | 7.6 µM | > 25
9 | Cc1ccccc1CN(C)CC(=O)Nc1ccccc1-c1ccccc1 | 16.3 µM | > 25
10 | O=C(N/C=N/OCc1ccc(Cl)cc1Cl)NOCc1ncc(C(F)(F)F)cc1Cl | 16 µM | > 25
11 | O=C(COC(=O)Cc1c(Cl)cccc1Cl)Nc1ccccc1-c1ccccc1 | 13.3 µM | > 25
12 | COc1ccc(/C=C/c2nc3cc(-c4ccccc4)ccc3o2)cc1O | 11.6 µM | > 25
13 | O=C(NCc1ccccc1)c1ccc(-c2ccccc2C(F)(F)F)o1 | > 25 µM (inactive) | > 25
14 | CC(C)(C)n1nnnc1C(c1ccc(Cl)cc1)N(Cc1cccnc1)Cc1ccco1 (configuration not stated) | > 25 µM (inactive) | > 25
15 | CC(C)COC(=O)c1cccc2c1-c1ccccc1/C2=N\O | > 25 µM (inactive) | > 25
16 | CCc1cccc(C)c1NC(=S)NCCc1c(C)[nH]c2ccc(C)cc12 | > 25 µM (inactive) | > 25
17 | O=Nc1c(O)n(Cc2cccc(Cl)c2)c2ccccc12 | > 25 µM (inactive) | > 25
18 | Cc1ccc2nc(-c3ccccc3)c(CN3CCN(c4ccccc4F)CC3)n2c1 | 15.6 µM | > 25
19 | Cc1ccc(NC(=O)C2(c3ccccc3)CC2(Cl)Cl)cc1C (configuration not stated) | > 25 µM (inactive) | > 25
20 | Oc1cccc(C(O)CNCc2ccc(OCc3ccc(Cl)cc3Cl)cc2)c1 (configuration not stated) | 15 µM | 17.2
21 | COc1ccc(C2C3=C(CC(C)(C)CC3=O)Oc3ncn(Cc4ccccc4)c(=N)c32)cc1 (configuration not stated) | 12.6 µM | > 25

Row | SMILES | IC50 (WT cells) | IC50 [1] [µM]
22 | COc1ccc(C2=NN(C(=O)c3cccs3)C(c3ccccc3O)C2)cc1 (configuration not stated) | 13.8 µM | 24.9
23 | CCn1ccnc1CN1CCc2c([nH]c3ccccc23)C1C1CCCCC1 (configuration not stated) | 17.6 µM | > 25
24 | COc1cccc(-c2nc(-c3ccccn3)no2)c1 | > 25 µM (inactive) | > 25
25 | c1ccc(CNc2nc(-c3cccs3)nc3ccccc23)cc1 | > 25 µM (inactive) | > 25
26 | C=CCN1C(=O)C(CC(=O)Nc2ccc(OCCC)cc2)N(CCCN2CCN(Cc3ccccc3)CC2)C1=S (configuration not stated) | > 25 µM (inactive) | > 25
27 | Cc1cc(Oc2ccc(C(C)(C)C)cc2)nc(N2CCOCC2)n1 | 19.9 µM | > 25
28 | COc1ccccc1-c1cc(C(F)(F)F)nc(NCc2cccs2)n1 | 11.2 µM | > 25
29 | S=c1[nH]nc(-c2cc3ccccc3o2)n1Cc1ccccc1 | 12.5 µM | 23.1
30 | Oc1ccc2ccccc2c1/C=N/c1nc2c(s1)CCCC2 | > 25 µM (inactive) | > 25
31 | CC(C)(C)c1ccc(NC(=O)c2ccccc2)c([N+](=O)[O-])c1 | 24.9 µM (inactive) | > 25
32 | CC(C)C12CN3CCN(CC(C3)C1O)C2 (configuration not stated) | > 25 µM (inactive) | > 25
33 | CC(NC(=O)COc1ccccc1-c1ccccc1)c1ccccc1 (configuration not stated) | 15 µM | > 25
34 | COc1cccc(NC(=S)N(CCc2c(C)[nH]c3ccccc23)Cc2ccco2)c1 | 15.6 µM (inactive) | > 12.5
35 | CCOC(=O)C1CCCN(C(=O)CS(=O)(=O)Cc2ccccc2)C1 (configuration not stated) | > 25 µM (inactive) | > 25
36 | Cc1cccc(N2CCN(C(=O)COc3ccc4c(c3)CCC4)CC2)c1C | 14.8 µM | > 25
37 | CCN(CC)c1ccc(NC(=O)Nc2ccccc2C(F)(F)F)cc1 | > 25 µM (inactive) | > 25
38 | COc1ccc(OC)c(NC(=O)COC(=O)Cc2ccc(Br)cc2)c1 | > 25 µM (inactive) | > 25
39 | c1ccc2c(c1)[nH]c1c(N3CCCC3)ncnc12 | > 25 µM (inactive) | > 25
40 | Cc1ccc(C(=O)NC(=S)/C=C2\N(C)c3ccccc3C2(C)C)cc1 | 12 µM | > 25
41 | CCCC[C@@H]1C[C@H]1[C@@H](NC(=O)c1cccs1)c1ccc(Cl)cc1 | 9.76 µM | > 25
